Cloning efficiencies data for one substance are collected here from patent US6794495B1, “Composition comprising extensin and, optionally, pectic polysaccharides” (New Nordic Danmark APS, priority 1998, dated 2004).

The subject of the experiment is Tetrahymena thermophila cells. In words: Oligo-cell experiments: cloning efficiency in synthetic nutrient medium. The format is cell-based. The text has this:
The invention was the result of a laboratory test program using in vivo cell signalling model. The application of a nutritionally complete synthetic (NCS) medium in an oligo-cell experimental research program in which cells demise (or eventually have a prolonged lag-phase) was used for gaining scientific information related to determining the effectiveness of pectins and pectin and extensin combinations as biochemical messengers. An additional control was supplemented with cephalin, that activates cells to multiplication. The effect of an activator added to the NCS medium is compared directly to the control that demises. Apparently, any compound or combination of compounds can be examined in light of the question whether it can activate a cell to survive and/or proliferate. From the beginning of the 1980's the effect of biochemical messengers has been examined with cells grown in an NCS medium free of proteins, lipids, and sugars. Signalling applies to unicellular and multicellular organisms, and the idea of NCS media is that a biochemical messenger can be tested for its biological effect on the cells to gain insight in cellular signalling mechanisms. Biochemical messengers are related to the four biological cornerstones of the eukaryotic cell: survival, proliferation, differentiation, and programmed cell death.
In oligo-cell experiments, different pectins and combinations of pectins and extensins were examined for their ability to activate Tetrahymena thermophila cells to survival and/or proliferation. The Tetrahymena cell has nutritional requirements similar to those of animals. They contain subcellular organelles such as mitochondria and peroxisomes, which are essential for the development of regulatory mechanisms in cellular metabolism. […]
Cloning efficiencies were determined from cell multiplications in a synthetic nutrient medium without and with supplements. […]

As to cephalin, the Cloning efficiencies is 15/15 (50 mg/L in synthetic nutrient medium, experiments with cell multiplication after 30 hours / total experiments, about two cells in two mL, first experiment); 15/15 (50 mg/L in synthetic nutrient medium, experiments with cell multiplication after 30 hours / total experiments, about two cells in two mL, second experiment (sugar beet fiber)); 92% (controls supplemented with cephalin, evaluated after 30 hours).
